Measured values published in patent US20100120050A1, “Biomarkers For Assessing Altherosclerotic Potential” (ENTELOS, INC., priority 2008, published 2010).
Like-named read-outs stand apart in the source and are kept apart here.

Test system: hepatic genes (liver)
Description: While the molecular target for PPARγ is not in the liver, it represents the effects of changes in metabolism of the whole animal, which impact liver lipoprotein production and clearance.
Male Sprague-Dawley (Crl:CD® (SD)(IGS)BR) rats (Charles River Laboratories, Portage, Mich.), weight matched, 7 to 8 weeks of age, were housed individually in hanging, stainless steel, wire-bottom cages in a temperature (66-77° F.), light (12-hour dark/light cycle) and humidity (30-70%) controlled room. Water and rodent diet were available ad libitum throughout the 5 day acclimatization period and during the 5 day treatment period. Housing and treatment of the animals were in accordance with regulations outlined in the USDA Animal Welfare Act (9 CFR Parts 1, 2 and 3).
Rats (three per group) were dosed daily at either a low or high dose. […] Animals were necropsied on days 0.25, 1, 3, and 5. Up to 13 tissues (e.g., liver, kidney, heart, bone marrow, blood, spleen, brain, intestine, glandular and nonglandular stomach, lung, muscle, and gonads) were collected for histopathological evaluation and microarray expression profiling on the Affymetrix Rat Whole Genome RG230 v2 platform. In addition, a clinical pathology panel consisting of 37 clinical chemistry and hematology parameters was generated from blood samples collected on days 3 and 5.
Gene expression profiling, data processing and quality control were performed using protocols recommended by. Briefly, liver samples from 3 rats were chosen at random from each treatment and control group for each timepoint for expression profile analysis on the Affymetrix Rat Whole Genome RG230 v2 microarray (Affymetrix, Santa Clara, Calif.). Log transformed signal data for all probes were array-wise normalized using the Affymetrix MASS algorithm. Expression log ratios of base 10 (log(10) ratios) were computed as the difference between the logs of the averaged normalized experimental signals and the averaged normalized time-matched vehicle control signals for each gene.

CCc1ccc(CCOc2ccc(CC3SC(=O)NC3=O)cc2)nc1 (stereo not drawn) [pioglitazone]
Average Log (10) Ratio: L-3-hydroxyacyl-Coenzyme A dehydrogenase, short chain (rat liver, probe AA891362, Rn.92789, oral gavage, experiments of Table 3): 0.375
Average Log (10) Ratio: acetyl-coenzyme A acetyltransferase 1 (rat liver, probe AA899304, Rn.4054, oral gavage, experiments of Table 3): 0.171
Average Log (10) Ratio: transferrin (rat liver, probe AA945548, Rn.91296, oral gavage, experiments of Table 3): −0.222
Average Log (10) Ratio: sterol regulatory element binding factor 1 (rat liver, probe AF286470, Rn.801, oral gavage, experiments of Table 3): −0.118
Average Log (10) Ratio: CCAAT/enhancer binding protein (C/EBP), delta (rat liver, probe AI176576, Rn.6975, oral gavage, experiments of Table 3): −0.035
Average Log (10) Ratio: fatty acid synthase (rat liver, probe AI179334, Rn.9486, oral gavage, experiments of Table 3): −0.411
Average Log (10) Ratio: peroxisome proliferator activated receptor alpha (rat liver, probe AI385341, Rn.9753, oral gavage, experiments of Table 3): 0.247
Average Log (10) Ratio: perilipin (rat liver, probe AI406700, Rn.9737, oral gavage, experiments of Table 3): −0.187
Average Log (10) Ratio: monoglyceride lipase (rat liver, probe AI713204, Rn.40396, oral gavage, experiments of Table 3): −0.118
Average Log (10) Ratio: phosphatidylinositol 3-kinase, C2 domain containing, gamma polypeptide (rat liver, probe AW526669, Rn.169550, oral gavage, experiments of Table 3): −0.240
Average Log (10) Ratio: monoglyceride lipase (rat liver, probe AY081195, Rn.40396, oral gavage, experiments of Table 3): −0.131
Average Log (10) Ratio: mitogen-activated protein kinase 8 (rat liver, probe BE105603, Rn.4090, oral gavage, experiments of Table 3): 0.332
Average Log (10) Ratio: ELOVL family member 6, elongation of long chain fatty acids (yeast) (rat liver, probe BF396857, Rn.46942, oral gavage, experiments of Table 3): −0.225
Average Log (10) Ratio: sterol regulatory element binding factor 1 (rat liver, probe BF398848, Rn.801, oral gavage, experiments of Table 3): −0.092
Average Log (10) Ratio: RIKEN cDNA 1500016L11 (DBSS) (rat liver, probe BF407188, Rn.15135, oral gavage, experiments of Table 3): −0.149
Average Log (10) Ratio: monoglyceride lipase (rat liver, probe BG372713, Rn.40396, oral gavage, experiments of Table 3): −0.110
Average Log (10) Ratio: Pyruvate carboxylase (rat liver, probe BG376902, Rn.11094, oral gavage, experiments of Table 3): 0.300
Average Log (10) Ratio: acetyl CoA transferase-like (DBSS) (rat liver, probe BG377636, Rn.98393, oral gavage, experiments of Table 3): 0.071
Average Log (10) Ratio: phospholipid transfer protein (DBSS) (rat liver, probe BI278687, Rn.117434, oral gavage, experiments of Table 3): −0.045
Average Log (10) Ratio: guanine nucleotide binding protein, alpha stimulating, olfactory type (rat liver, probe BI281656, Rn.39132, oral gavage, experiments of Table 3): −0.386
Average Log (10) Ratio: acetyl-Coenzyme A acyltransferase 2 (mitochondrial 3-oxoacyl-Coenzyme A thiolase) (rat liver, probe BI282488, Rn.3786, oral gavage, experiments of Table 3): 0.046
Average Log (10) Ratio: glycerol-3-phosphate acyltransferase, mitochondrial (rat liver, probe BI288209, Rn.44456, oral gavage, experiments of Table 3): −0.319
Average Log (10) Ratio: elongation of very long chain fatty acids (FEN1/Elo2, SUR4/Elo3, yeast)-like 3 (DBSS) (rat liver, probe BI292438, Rn.79322, oral gavage, experiments of Table 3): 0.334
Average Log (10) Ratio: NCI_CGAP_Emb2 cDNA clone IMAGE: 4176354 (rat liver, probe BI850137, Rn.83595, oral gavage, experiments of Table 3): 0.315
Average Log (10) Ratio: pyruvate dehydrogenase kinase, isoenzyme 3 (mapped) (rat liver, probe BM389330, Rn.18101, oral gavage, experiments of Table 3): −0.142
Average Log (10) Ratio: 3-hydroxy-3-methylglutaryl-Coenzyme A reductase (rat liver, probe BM390399, Rn.9437, oral gavage, experiments of Table 3): −0.018
Average Log (10) Ratio: sulfotransferase family 2A, dehydroepiandrosterone (DHEA)-preferring, member 1 (rat liver, probe D14989, Rn.91378, oral gavage, experiments of Table 3): 0.112
Average Log (10) Ratio: apolipoprotein E (rat liver, probe J02582, Rn.32351, oral gavage, experiments of Table 3): 0.410
Average Log (10) Ratio: stearoyl-Coenzyme A desaturase 1 (rat liver, probe J02585, Rn.1023, oral gavage, experiments of Table 3): 0.056
Average Log (10) Ratio: apolipoprotein B (rat liver, probe M14952, Rn.33815, oral gavage, experiments of Table 3): −0.303
Average Log (10) Ratio: NCI_CGAP_Emb2 cDNA clone IMAGE: 4176354 (rat liver, probe M15114, Rn.83595, oral gavage, experiments of Table 3): 0.052
Average Log (10) Ratio: malic enzyme 1 (rat liver, probe M30596, Rn.161920, oral gavage, experiments of Table 3): −0.083
Average Log (10) Ratio: glucokinase (rat liver, probe NM_012565, Rn.10447, oral gavage, experiments of Table 3): −0.220
Average Log (10) Ratio: serine (or cysteine) peptidase inhibitor, clade E, member 1 (rat liver, probe NM_012620, Rn.29367, oral gavage, experiments of Table 3): 0.049
Average Log (10) Ratio: adrenergic receptor, beta 1 (rat liver, probe NM_012701, Rn.87064, oral gavage, experiments of Table 3): 0.205
Average Log (10) Ratio: hexokinase 2 (rat liver, probe NM_012735, Rn.91375, oral gavage, experiments of Table 3): 0.300
Average Log (10) Ratio: guanylate cyclase 1, soluble, beta 3 (rat liver, probe NM_012769, Rn.87228, oral gavage, experiments of Table 3): −0.120
Average Log (10) Ratio: guanylate cyclase 1, soluble, beta 2 (rat liver, probe NM_012770, Rn.10933, oral gavage, experiments of Table 3): −0.120
Average Log (10) Ratio: mitogen activated protein kinase 10 (rat liver, probe NM_012806, Rn.9911, oral gavage, experiments of Table 3): 0.229
Average Log (10) Ratio: carnitine palmitoyltransferase 2 (rat liver, probe NM_012930, Rn.11389, oral gavage, experiments of Table 3): 0.030
Average Log (10) Ratio: 3-hydroxy-3-methylglutaryl-Coenzyme A reductase (rat liver, probe NM_013134, Rn.9437, oral gavage, experiments of Table 3): 0.086
Average Log (10) Ratio: transforming growth factor, beta 3 (rat liver, probe NM_013174, Rn.7018, oral gavage, experiments of Table 3): −0.086
Average Log (10) Ratio: carnitine palmitoyltransferase 1b, muscle (rat liver, probe NM_013200, Rn.6028, oral gavage, experiments of Table 3): 0.125
Average Log (10) Ratio: solute carrier family 10, member 2 (rat liver, probe NM_017222, Rn.85891, oral gavage, experiments of Table 3): −0.206
Average Log (10) Ratio: mitogen-activated protein kinase 9 (rat liver, probe NM_017322, Rn.9910, oral gavage, experiments of Table 3): −0.209
Average Log (10) Ratio: acyl-Coenzyme A oxidase 1, palmitoyl (rat liver, probe NM_017340, Rn.31796, oral gavage, experiments of Table 3): 0.165
Average Log (10) Ratio: transforming growth factor, beta 1 (rat liver, probe NM_021578, Rn.40136, oral gavage, experiments of Table 3): −0.047
Average Log (10) Ratio: protein kinase, AMP-activated, beta 2 non-catalytic subunit (rat liver, probe NM_022627, Rn.15423, oral gavage, experiments of Table 3): −0.432
Average Log (10) Ratio: transforming growth factor, beta 2 (rat liver, probe NM_031131, Rn.24539, oral gavage, experiments of Table 3): −0.378
Average Log (10) Ratio: carnitine palmitoyltransferase 1a, liver (rat liver, probe NM_031559, Rn.2856, oral gavage, experiments of Table 3): 0.341
Average Log (10) Ratio: protein kinase, AMP-activated, beta 1 non-catalytic subunit (rat liver, probe NM_031976, Rn.3619, oral gavage, experiments of Table 3): −0.188
Average Log (10) Ratio: ATP-binding cassette, sub-family D (ALD), member 1 (DBSS) (rat liver, probe NM_033352, Rn.177278, oral gavage, experiments of Table 3): 0.292
Average Log (10) Ratio: insulin-like growth factor binding protein, acid labile subunit (rat liver, probe NM_053329, Rn.164865, oral gavage, experiments of Table 3): −0.263
Average Log (10) Ratio: pyruvate dehydrogenase kinase, isoenzyme 4 (rat liver, probe NM_053551, Rn.30070, oral gavage, experiments of Table 3): −0.148
Average Log (10) Ratio: phosphatidylinositol 3-kinase, C2 domain containing, gamma polypeptide (rat liver, probe NM_053923, Rn.169550, oral gavage, experiments of Table 3): −0.055
Average Log (10) Ratio: pyruvate dehydrogenase E1 alpha 2 (rat liver, probe NM_053994, Rn.11126, oral gavage, experiments of Table 3): −0.171
Average Log (10) Ratio: nuclear receptor subfamily 0, group B, member 2 (rat liver, probe NM_057133, Rn.10712, oral gavage, experiments of Table 3): 0.034
Average Log (10) Ratio: hydroxyacyl-Coenzyme A dehydrogenase/3-ketoacyl-Coenzyme A thiolase/enoyl-Coenzyme A hydratase (trifunctional protein), beta subunit (rat liver, probe NM_133618, Rn.11253, oral gavage, experiments of Table 3): 0.182
Average Log (10) Ratio: ELOVL family member 5, elongation of long chain fatty acids (yeast) (rat liver, probe NM_134382, Rn.4243, oral gavage, experiments of Table 3): −0.191
Average Log (10) Ratio: Glycerol-3-phosphate dehydrate dehydrogenase (mtGPDH) mRNA, 3′UTR (rat liver, probe U08027, Rn.89705, oral gavage, experiments of Table 3): 0.026
Average Log (10) Ratio: glycerol-3-phosphate acyltransferase, mitochondrial (rat liver, probe U36771, Rn.44456, oral gavage, experiments of Table 3): −0.239
Average Log (10) Ratio: Cytochrome P450, family 2, subfamily b, polypeptide 2 (rat, in vivo, po): 0.275
Average Log (10) Ratio: cytochrome P450, family 2, subfamily b, polypeptide 13 (rat, in vivo, po): −0.015
Average Log (10) Ratio: cytochrome P450, family 3, subfamily a, polypeptide 13 (rat, in vivo, po): −0.242
Average Log (10) Ratio: cytochrome P450, family 7, subfamily a, polypeptide 1 (rat, in vivo, po): 0.320
Average Log (10) Ratio: cytochrome P450, family 8, subfamily b, polypeptide 1 (rat, in vivo, po): 0.351
